As a reminder, the chromatographic logP is a lipophilicity value derived from retention on a column. Lower therefore signals a more hydrophilic compound.

The conditions of data set [1]: HPLC reversed-phase C 18; 40°C; 0.1% aqueous formic acid and acetonitrile, linear gradient 10% to 95% acetonitrile.
Source text: (§1) Die Kalibrierung wurde jeweils mit unverzweigten Alkan-2-onen (3 bis 16 Kohlenstoff Atome) mit bekannten logP Werten durchgeführt (Bestimmung von den logP Werten über die Retentionszeiten durch lineare Interpolation zwischen zwei bestimmten Alkanonen).

Source text for physchem: as §1

Regarding `Cc1n[nH]c(=O)c(-c2cccs2)c1-c1ccc(Cl)s1` [(4), 5-(5-Chlor-2-thienyl)-4-(2-thienyl)-6-methylpyridazin-3(2H)-on], the chromatographic logP in the data set “physchem” turned out to be 2.71. In the data set “physchem”, `CC1(O)OC(=O)C(c2cccs2)=C1c1ccc(Cl)s1` (stereo not shown) [(3), 4-(5-Chlor-2-thienyl)-3-(2-thienyl)-5-hydroxy-5-methylfuran-2(5H)-on] displayed a chromatographic logP of 2.9. As for `Cc1nnc(Cl)c(-c2cccs2)c1-c1ccc(Cl)s1` [Beispiel 11, 3-Chlor-5-(5-chlor-2-thienyl)-4-(2-thienyl)-6-methylpyridazin], the log p in data set [1] was 3,56. In addition, in “physchem”, the chromatographic logP came out at 3.56.

These data come from EP1978023A1, “Pyridazines as fungicides” (Bayer CropScience Aktiengesellschaft, priority 2007, dated 2008).
